Results from patent US4839380A, “1-Thiocarbamoylmethylpyrrolidine-2-thione, medical compositions of, and anti-hypoxic and nootropic use thereof” (priority 1988, dated 1989).

Assays:
[1] = Convulsions caused by thiosemicarbazide; assay type: in vivo, white mice
Description: The interaction of the compound according to the present invention with thiosemicarbazide--a specific antagonist of gamma-aminobutyric acid (GABA) was also studied.
Due to the fact that in functioning of the brain, in particular in processes of learning and memorizing, gammaaminobutyric acid (GABA) plays an important role, the possibility of the presence of a GABA-ergic component in the mechanism of action of the compound according to the present invention was studied. To this end, the ability of the compound according to the present invention to prevent convulsions caused by thiosemicarbazide, which is an inhibitor of an enzyme synthesizing gamma-aminobutyric acid, was studied.
The experiments were carried out on 140 white mice of 18-20 g mass. Thiosemicarbazide was administered hypodermally in the dose of 20 mg/kg. The compound according to the present invention was administered intraperitoneally in the doses of 50, 250 and 500 mg/kg 20 minutes after administration of thiosemicarbazide. For every dose 20 mice were used. The presence of the anticonvulsion activity was determined by the change of the latent period of occurrence of convulsions and by extension of the period of death of the animals. The experiments were carried out in comparison with pyracetam.

[2] = test system: rats' cerebral cortex; test: Acute repeating anoxia (asphyxial hypoxia): electrical activity of the cerebral cortex of rats; assay type: in vivo; settings: for I--time till the disappearance of a cortex electrical activity / II--time till the appearance of an electrocorticogram after renewal of breathing / III--total time of electrical "silence" of the cortex: 1.000 mg/kg
Experimental: The studies were conducted on a model of an acute repeating anoxia.
The studies were carried out in experiments on rats with a mass of 180-200 g with nichrome electrodes in the brain (cerebral) cortex; after tracheostomy the animals were connected to the artificial-breathing apparatus. Anoxia was induced by repeatedly switching-off the breathing for 90, 120, 150 and 180 seconds with 10-minutes' intervals therebetween. Electrocardiogram and electrocorticogram were recorded. 53 rats altogether were used in the experiments. The antihypoxic activity of the compound according to the present invention in comparison with pyracetam was assessed by the following parameters:
I--time till the disappearance of a cortex electrical activity after discontinuation of oxygen supply;
II--time till the appearance of an electrocorticogram after renewal of breathing;
III--total time of electrical "silence" of the cortex
for each of the successive anoxiae.
The results of the experiments were statistically evaluated using Student's T-criterion.

[3] = test system: rats; test: Learning speed and performing of electrodefensive conditioned reflex of avoidance; assay type: in vivo, rats (nondescript male)
Description: The study of the compound according to the present invention for the speed of learning and performing the produced conditioned reflux was effected in experiments on rats using the method of electrodefensive conditioned reflexes of avoidance.
The study of the effect on the learning speed and fulfilment of the elaborated conditioned reflex was effected on 40 nondescript male rats with a mass of 150170 g (4 groups of 10 rats in each) by the method of electrodefensive conditioned reflexes. Conditioned reflexes were trained in all rats for ringing used as a conditional irritation signal supported by a non-conditional irritating agent--electric current (40-50 V) supplied to an electrified floor of a conditioned-reflex chamber. As the criterion for the elaboration of the conditioned reflex the rat's jump onto a stand in response to switching-on of a bell during the first 10 seconds after the beginning of the sound was assumed.
All rats, against the background of elaboration of conditioned reflexes, were administered over 3 weeks (5 times a week) with: the first group--the compound according to the present invention in the dose of 250 mg/kg; the second and third group--pyracetam in the doses of 500 and 1,000 mg/kg; and the fourth group--control--isotonic solution of sodium chloride. The administration was effected intraperiotoneally 24 hours before the experiment.

[4] = test system: mice; test: Lifespan of mice under acute hypoxic hypoxia with hypercapnia (sealed chamber); assay type: in vivo, mice (nondescript white male)
Experimental: (§1) The antihypoxic effect of the compound according to the present invention was studied in comparison with pyracetam on various experimental models of hypoxic states in experiments on mice and rats. The compound according to the present invention and pyracetam were administered intraperitoneally in the form of an aqueous emulsion prepared with Tween-80.
Tests were carried out on a model of an acute hypoxic hypoxia with hypercapnia.
The tests were conducted using 540 nondescript while male mice with a mass of 20-22 g. Each mouse was separately placed into a sealed chamber (with the capacity of 250 ml) 60 minutes after administration of the compound according to the present invention in the doses of 50, 100, 250, 500 and 750 mg/kg. The control animals were issued with an isotonic solution of sodium chloride. The antihypoxic activity was assessed by the lifespan of the mice in the sealed chamber (in minutes).

[5] = test system: mice; test: Acute histotoxic hypoxia (sodium nitroprusside): lifespan of mice; assay type: in vivo
Experimental: as §1
The studies were carried out using a model of an acute histotoxic hypoxia.
An acute histotoxic hypoxia was induced by way of a subcutaneous injection of sodium nitroprusside in the dose of 20 mg/kg. This mode of administration results in a 100% death of mice in 15-25 minutes after administration of the preparation. The lifespan of the mice was adjudicated after administration of sodium nitroprusside against the background of the test compounds (the compound according to the present invention and pyracetam) which was recorded by the arrest of breathing and heart. In this series of experiments 40 animals altogether were used.

[6] = test system: mice; test: Acute hypobaric hypoxia: height ceiling for mice (Hmax); assay type: in vivo, mice (male, tetrahybrids)
Experimental: as §1
The studies were carried out on a model of an acute hypobaric hypoxia.
An acute […] hypoxia was modelled in a flow-type barometric chamber at an ambient temperature of 17°-20° C. with absorption of carbon dioxide and water.
The test animals (male mice, tetrahybrids) with a mass of 15-22 g of the same generation were "lifted" (under simulation conditions) at the mean speed of 50 m/sec to the height of 11,000 m at which the lifespan (in minutes) for the same series of experiments was evaluated. Furthermore, the mice were discretely lifted at the same speed to the height of 10,000 m where they stayed for 1 minute and then to the height of 11,000 m, where they again were kept for 1 minute and so on, till their death for the determination of the height "ceiling", The animals' death was adjudicated by the occurrence of an agonal breathing against the background of convulsions. The total number of mice employed in the experiments was 200.
As the comparison preparation pracetam was used. The compound according to the present invention and pyracetam were administered one hour before the "lift".

[7] = dose 4 times that of the compound of the invention

SMILES: NC(=O)CN1CCCC1=O [Pyracetam, 1-carbamidomethylpyrrolidone-2, reference compound]
- Latent period of convulsion occurrence ([1]; 1000 mg/kg): 66.6 (61.0-72.2) min
- Time period after which animals die ([1]; 1000 mg/kg): 79.9 (64-96.8) min
- Latent period of convulsion occurrence ([1]; 2000 mg/kg): 70.6 (65.6-75.6) min
- Time period after which animals die ([1]; 2000 mg/kg): 82 (73.6-90.4) min
- extension of the latent period of occurrence of convulsions as compared to the control [1, 7]: 10%
- extension of the period of death as compared to the control [1, 7]: 17%
- effect on thiosemicarbazide convulsions similar to that of the compound of the invention ([1]; higher doses): pronounced but very slightly
- Number of animals with recovered electrocorticogram after the 4th anoxia ([2]; 1,000 mg/kg): 14.3%
- Number of animals with retained electrocorticogram after the 1st anoxia ([2]; 1,000 mg/kg): 12.5%
- Number of animals with recovered electrocorticogram after the 4th anoxia ([2]; 1,000 mg/kg, listed as pyracetam): 15%
- I--time till the disappearance of a cortex electrical activity ([2]; 1st anoxia, 90 seconds): 76.7 ± 4.8 s
- II--time till the appearance of an electrocorticogram after renewal of breathing ([2]; 1st anoxia, 90 seconds): 5.3 ± 0.2 s
- III--total time of electrical "silence" of the cortex ([2]; 1st anoxia, 90 seconds): 17.8 ± 4.9 s
- I--time till the disappearance of a cortex electrical activity ([2]; 2nd anoxia (column 6; 120 seconds)): 85.8 ± 7.3 s
- II--time till the appearance of an electrocorticogram after renewal of breathing ([2]; 2nd anoxia (column 7; 120 seconds)): 21.8 ± 6.9 s
- III--total time of electrical "silence" of the cortex ([2]; 2nd anoxia (column 8; 120 seconds)): 53.3 ± 12.0 s
- I--time till the disappearance of a cortex electrical activity ([2]; 3rd anoxia (column 9; 150 seconds)): 95.0 ± 16.3 s
- II--time till the appearance of an electrocorticogram after renewal of breathing ([2]; 3rd anoxia (column 10; 150 seconds)): 67.6 ± 42.I
- III--total time of electrical "silence" of the cortex ([2]; 3rd anoxia (column 11; 150 seconds)): 131.2 ± 53.8 s
- I--time till the disappearance of a cortex electrical activity ([2]; 4th anoxia (column 12; 180 seconds)): 79.4 ± 23.8 s
- effect on elaboration and fixation of a conditioned reflex ([3]; 1.000 mg/kg): effect similar to that produced by the compound according to the present inventuion in the dose of 250 mg/kg
- latent period of the conditioned reflex of avoidance ([3]; 1.000 mg/kg): 0.98 ± 0.29 s
- effect on elaboration and fixation of a conditioned reflex ([3]; 500 mg/kg): inactive
- lifespan of mice under acute hypoxic hypoxia ([4]; 100 mg/kg i.p.): 27.4 min
- lifespan of mice under acute hypoxic hypoxia ([4]; 250 mg/kg i.p.): 33.5 min
- lifespan of mice under acute hypoxic hypoxia ([4]; 500 mg/kg i.p.): 39.6 min
- lifespan of mice under acute hypoxic hypoxia ([4]; 750 mg/kg i.p.): 34.4 min
- extension of mice lifespan as compared to the control ([4]; 2,000 mg/kg): 60%
- lifespan of mice under acute hypoxic hypoxia ([4]; 2000 mg/kg i.p.): 45.0 min
- lifespan of mice under acute hypoxic hypoxia ([4]; 2000 mg/kg i.p., listed as pyracetam): 45 min
- lifespan of mice under acute hypoxic hypoxia ([4]; column 8, dose printed "100" mg/kg (between 750 and 2000), i.p.): 41.4 min
- lifespan of mice at an acute histotoxic hypoxia ([5]; 1.000 mg/kg (= 1,000)): 20.97 ± 1.31 min
- lifespan of mice at an acute histotoxic hypoxia, % (control = 100%) ([5]; 1.000 mg/kg (= 1,000)): 107.6 ± 6.7%
- lifespan of mice at an acute histotoxic hypoxia ([5]; 250 mg/kg): inactive
- lifespan of mice at an acute histotoxic hypoxia ([5]; 500 mg/kg): 17.98 ± 1.49 min
- lifespan of mice at an acute histotoxic hypoxia, % (control = 100%) ([5]; 500 mg/kg): 92.2 ± 7.62%
- height ceiling for mice (Hmax) ([6]; 250 mg/kg): 10.96 ± 0.91 thous. m
- height ceiling for mice (Hmax) ([6]; 500 mg/kg): 11.55 ± 0.62 thous. m
